Results on 5 molecules are retold here after patent US20160287571A1, “PHARMACEUTICAL COMPOSITIONS COMPRISING ANTIBACTERIAL AGENTS” (priority 2013, published 2016).

Assay type in all cases: cell-based, Acinetobacter baumannii
Assay [1] deals with A. baumannii NCTC 13301 (OXA 51, OXA 23). In words: MIC in Muller Hinton Agar (CLSI agar dilution). The protocol:
(§1) The antibacterial activity of combinations according to the invention against resistant bacterial strains was investigated. Minimum Inhibitory Concentration (MIC) for the combinations according to invention was determined in Muller Hinton Agar (MHA) (BD, USA) according to Clinical and Laboratory Standards Institute (CLSI) recommendations (Clinical and Laboratory Standards Institute (CLSI), Performance Standards for Antimicrobial Susceptibility Testing, 20th Informational Supplement, M 100-S20, Volume 30, No. 1, 2010). Typically, the test strains were adjusted to deliver about 10^4 CFU per spot with a multipoint inoculator (Applied Quality Services, UK). The plates were pored with MHA containing doubling concentration range of the test combinations according to invention. The plates were inoculated and were incubated at 35° C. for 18 hours.
Background: In agar dilution the substance is mixed into plates at graded concentrations.

The test system of assay [2] is A. baumannii Q 1460648 (OXA 51, OXA 23). In words: MIC in Muller Hinton Agar (CLSI agar dilution). As to the method:
as §1

In assay [3] the test system is A. baumannii J 144 (OXA 51, OXA 23). Description: MIC in Muller Hinton Agar (CLSI agar dilution). The protocol: as §1
Assay [4] deals with A. baumannii NCTC 13302 (OXA 51, OXA 25). In words: MIC in Muller Hinton Agar (CLSI agar dilution). The protocol: as §1
In assay [5] the test system is A. baumannii NCTC 13304 (OXA 51, OXA 27). Description: MIC in Muller Hinton Agar (CLSI agar dilution). As to the method: as §1
The subject of assay [6] is A. baumannii NCTC 13305 (OXA 51, OXA 58). In words: MIC in Muller Hinton Agar (CLSI agar dilution). As to the method: as §1
The test system of assay [7] is A. baumannii M 126 (OXA 51, OXA 23). Description: MIC in Muller Hinton Agar (CLSI agar dilution). The protocol:
as §1

Assay [8] deals with A. baumannii G 156 (OXA 51, OXA 23). In words: MIC in Muller Hinton Agar (CLSI agar dilution). As to the method:
as §1

Assay [9] relates to A. baumannii NCTC 13303 (OXA 51, OXA 26). In words: MIC in Muller Hinton Agar (CLSI agar dilution). The protocol: as §1
In assay [10] the test system is A. baumannii NCTC 13302 (OXA 51, OXA 25). In words: Time kill study. The conditions noted are these: for Bacterial count: initial count 6.54 log CFU/ml; for Effect on bacterial counts throughout the duration of the study (in words): A. baumannii NCTC 13302, summary of Table 3. As to the method:
(§2) The synergistic killing effect of the combinations according to invention was studied using time kill studies. In a typical time kill study, freshly grown cultures were diluted to the required cell density (initial starting inoculum) in Cation adjusted Muller Hinton broth medium (BD, USA). The antibacterial agents (either alone or in combination) at the required concentrations were added into the culture-containing medium. The samples were incubated under shaking condition (120 rpm) at 37° C. Enumeration of viable bacterial count was done every 2 hour by diluting in normal saline and plating on to the Tryptic Soya Agar plates (BD, USA). The plates were incubated for 24 hours to arrive at the viable bacterial count. The results are expressed in terms of Log CFU per […]. In general, the decrease of 1 Log CFU/ml, corresponds to 90% killing of bacteria. Similarly, 2 Log CFU/ml reductions indicates 99% killing of bacteria and 3 Log CFU/ml reductions is equal to 99.9% killing of bacteria.

Assay [11] deals with A. baumannii NCTC 13304 (OXA 51, OXA 27). Description: Time kill study. The following applies: for Bacterial count: initial count 6.06 log CFU/ml. As to the method:
as §2

[12] abbreviates: Acinetobacter baumannii, NCTC13301, agent alone, A. baumannii NCTC 13301, read-out: MIC.
[13] abbreviates: Acinetobacter baumannii, agent alone, A. baumannii Q 1460648, read-out: MIC.
The mark [14] stands for this setting: Acinetobacter baumannii, agent alone, A. baumannii J 144, read-out: MIC.
The mark [15] stands for this setting: Acinetobacter baumannii, NCTC13302, agent alone, A. baumannii NCTC 13302, read-out: MIC.
The mark [16] stands for this setting: Acinetobacter baumannii, NCTC13304, agent alone, A. baumannii NCTC 13304, read-out: MIC.
[17] abbreviates: Acinetobacter baumannii, NCTC13305, agent alone, A. baumannii NCTC 13305, read-out: MIC.
The mark [18] stands for this setting: Acinetobacter baumannii, agent alone, A. baumannii M 126, read-out: MIC.
The mark [19] stands for this setting: Acinetobacter baumannii, agent alone, A. baumannii G 156, read-out: MIC.
[20] abbreviates: Acinetobacter baumannii, NCTC13303, agent alone, A. baumannii NCTC 13303, read-out: MIC.
The mark [21] stands for this setting: 2 hours, agent alone at 4 mcg/ml.
[22] abbreviates: 4 hours, agent alone at 4 mcg/ml.
Setting [23] is: 6 hours, agent alone at 4 mcg/ml.

Where two headings read alike, the source gives them in different places. A value given as a limit tells only on which side of the number the result lay.

`O=C(NNC(=O)[C@@H]1CC[C@@H]2CN1C(=O)N2OS(=O)(=O)O)[C@@H]1CCCNC1` [Compound of Formula (I), (2S, 5R)-sulphuric acid mono-[2-(N′-[(R)-piperidin-3-carbonyl]-hydrazinocarbonyl)-7-oxo-1,6-diaza-bicyclo[3.2.1]oct-6-yl] ester]: the minimal inhibitory concentration (MIC) in assay [1] (setting [12]), in assay [2] (setting [13]), in [3] (setting [14]), in [4] (setting [15]), in [5] (setting [16]) and in [6] (setting [17]) was above 32 µg/mL throughout. For the same molecule, the MIC in assay [7] (setting [18]), in [8] (setting [19]) and in assay [9] (setting [20]) was above 32 µg/mL each time. For the same molecule, the Bacterial count in [10] (setting [21]) came to 7.5 Log CFU/ml; in [10] (setting [22]), 7.8 Log CFU/ml; in assay [10] (setting [23]), 7.95 Log CFU/ml; in [10] (8 hours, agent alone at 4 mcg/ml) it was 8.4 Log CFU/ml; in [11] (setting [21]) it was 7 Log CFU/ml; in [11] (setting [22]) it was 7.55 Log CFU/ml. Besides, in assay [11] (setting [23]), the Bacterial count was found to be 8.1 Log CFU/ml. In addition, the “Effect on bacterial counts throughout the duration of the study (in words)” value in [10] is listed as “did not reduce the bacterial counts”; in assay [11] (A. baumannii NCTC 13304, summary of Table 4) it was “did not reduce the bacterial counts”.
For `C[C@@H](O)[C@H]1C(=O)N2C(C(=O)O)=C(SCCN=CN)C[C@H]12` [Imipenem, imipenem], the MIC (as a rule, the lowest concentration that inhibits growth of the organism) in assay [1] (setting [12]) was 32 µg/mL; in assay [2] (setting [13]), 32 µg/mL; in assay [3] (setting [14]), above 32 µg/mL; in assay [4] (setting [15]), above 32 µg/mL; in assay [5] (setting [16]) it was 32 µg/mL; in [6] (setting [17]), 8 µg/mL. The MIC in [7] (setting [18]) was 16 µg/mL; in assay [8] (setting [19]), 16 µg/mL; in assay [9] (setting [20]), above 32 µg/mL. In addition, the Bacterial count in assay [10] (2 hours, agent alone at 8 mcg/ml) worked out at 7.87 Log CFU/ml; in assay [10] (4 hours, agent alone at 8 mcg/ml), 8.27 Log CFU/ml; in assay [10] (6 hours, agent alone at 8 mcg/ml), 8.07 Log CFU/ml; in assay [10] (8 hours, agent alone at 8 mcg/ml) it was 8.47 Log CFU/ml; in [11] (2 hours, agent alone at 16 mcg/ml), 6.34 Log CFU/ml; in [11] (4 hours, agent alone at 16 mcg/ml), 7.47 Log CFU/ml. The Bacterial count in [11] (6 hours, agent alone at 16 mcg/ml) came out at 7.07 Log CFU/ml.
Regarding `C[C@@H](O)[C@H]1C(=O)N2C(C(=O)O)=C(S[C@@H]3CN[C@H](C(=O)N(C)C)C3)[C@H](C)[C@H]12` [Meropenem, meropenem], the MIC in assay [2] (setting [13]) was 32 µg/mL; in [5] (setting [16]), 32 µg/mL; in assay [6] (setting [17]) it was 4 µg/mL; in assay [7] (setting [18]), 32 µg/mL; in assay [8] (setting [19]) it was 32 µg/mL; in assay [9] (setting [20]), above 32 µg/mL.
As for `CN(C)c1cc(NC(=O)CNC(C)(C)C)c(O)c2c1C[C@H]1C[C@H]3[C@H](N(C)C)C(O)=C(C(N)=O)C(=O)[C@@]3(O)C(O)=C1C2=O` [Tigecycline, tigecycline], the MIC in assay [1] (Acinetobacter baumannii, NCTC13301) amounted to 2 µg/mL; in assay [2] (Acinetobacter baumannii), 1 µg/mL; in [3] (Acinetobacter baumannii) it was 2 µg/mL; in [4] (Acinetobacter baumannii, NCTC13302), 2 µg/mL; in assay [5] (Acinetobacter baumannii, NCTC13304) it was 0.5 µg/mL; in assay [6] (Acinetobacter baumannii, NCTC13305), 0.5 µg/mL. Further, the MIC in assay [7] (Acinetobacter baumannii) turned out to be 0.5 µg/mL; in [8] (Acinetobacter baumannii), 1 µg/mL; in [9] (Acinetobacter baumannii, NCTC13303), 2 µg/mL. In addition, the Bacterial count in [10] (2 hours, agent alone at 1 mcg/ml) came out at 3.47 Log CFU/ml; in assay [10] (4 hours, agent alone at 1 mcg/ml) it was 3 Log CFU/ml; in assay [10] (6 hours, agent alone at 1 mcg/ml), 3 Log CFU/ml; in assay [10] (8 hours, agent alone at 1 mcg/ml), 3.23 Log CFU/ml. Besides, in assay [10], the “Effect on bacterial counts throughout the duration of the study (in words)” value is on record as “exhibited the reduction of the bacterial counts”.
As for colistin, the MIC in assay [1] (agent alone, A. baumannii NCTC 13301) was 2 µg/mL; in assay [2] (agent alone, A. baumannii Q 1460648), 1 µg/mL; in assay [3] (agent alone, A. baumannii J 144) it was 1 µg/mL; in [4] (agent alone, A. baumannii NCTC 13302), 2 µg/mL; in assay [5] (agent alone, A. baumannii NCTC 13304), 1 µg/mL; in assay [6] (agent alone, A. baumannii NCTC 13305), 1 µg/mL. Further, the MIC amounted to 1 µg/mL in [7] (agent alone, A. baumannii M 126); 1 µg/mL in assay [8] (agent alone, A. baumannii G 156); 1 µg/mL in assay [9] (agent alone, A. baumannii NCTC 13303).
